Measured values as given in publication PMC7691360, “Synthesis of novel cytotoxic tetracyclic acridone derivatives and study of their molecular docking, ADMET, QSAR, bioactivity and protein binding properties” (Scientific Reports, 2020).

Key:
[1] = system: HT29 cells; assay: MTT cytotoxicity assay against HT29; format: cell-based; conditions: Homo sapiens, 48 h, read-out: Percentage of inhibition against treated concentrations; for activity at 1 µM: HT-29, HT29, 1 µM; for activity at 5 µM: HT-29, HT29, 5 µM; for activity at 10 µM: HT-29, HT29, 10 µM; for activity at 25 µM: HT-29, HT29, 25 µM; for activity at 50 µM: HT-29, HT29, 50 µM
Description: (§1) Anticancer activity of 7a–s has been evaluated by MTT [3-(4,5-dimethylthiazol-2-yl)-2,5-diphenyl-tetrazolium bromide] assay and the cell lines HT29 (ATCC: HTB-38), MDA-MB-231 (ATCC: HTB-26), HEK293T (ATCC: CRL-3216) were procured from American type cell culture collection (ATCC), Manassas, USA and other chemicals were procured from Sigma-Aldrich. Then absorbance (used as a measure of cell proliferation) was measured at 570 nm with a kinetic micro-plate reader (BioTek, Winooski, Vermont).
(§2) Having synthesized a series of the title compounds, all of them were screened for their in vitro anticancer profiles against a panel of human colorectal adenocarcinoma (HT29), human breast adenocarcinoma (MDA-MB-231) and mutated Human embryonic kidney 293 (HEK293T) cancer cell lines by using MTT colourmetric assay as per Johan van Meerloo protocol. The three cell lines were cultured in […] medium and supplemented with 10% FBS followed by 100 units/mL penicillin/ streptomycin and were cultured at 37 °C in 5% CO2. Cell proliferation of the growing cells was measured in terms of logarithmic standards. Analytically, all the cultured cells were plated onto 96 well plates at a starting density of 10^5 cells. Then all the cells were treated with title compounds 7a–s for a period of 48 h with different concentrations. After this incubation cell proliferation inhibition was determined by MTT assay and all the experiments were conducted in triplicates and readings were presented as mean ± SD and provided in Tables 1, 2 and 3.

[2] = system: MDA-MB-231 cells; assay: MTT cytotoxicity assay against MDA-MB-231; format: cell-based; conditions: Homo sapiens, 48 h, read-out: Percentage of inhibition against treated concentrations; for activity at 1 µM: MDAMB231, 1 µM; for activity at 5 µM: MDAMB231, 5 µM; for activity at 10 µM: MDAMB231, 10 µM; for activity at 25 µM: MDAMB231, 25 µM; for activity at 50 µM: MDAMB231, 50 µM
Description: as §1, §2

[3] = system: HEK293T cells; assay: MTT cytotoxicity assay against HEK293T; format: cell-based; conditions: Homo sapiens, HEK-293T, 48 h, read-out: Percentage of inhibition against treated concentrations
Description: as §1, §2

Row | SMILES | activity at 1 µM [1] [%] | activity at 5 µM [1] [%] | activity at 10 µM [1] [%] | activity at 25 µM [1] [%] | activity at 50 µM [1] [%] | activity at 1 µM [2] [%] | activity at 5 µM [2] [%] | activity at 10 µM [2] [%] | activity at 25 µM [2] [%] | activity at 50 µM [2] [%] | activity at 1 µM [3] [%] | activity at 5 µM [3] [%] | activity at 10 µM [3] [%] | activity at 25 µM [3] [%] | activity at 50 µM [3] [%] | melting point [°C]
1 | O=C(c1ccc(C(F)(F)F)cc1)N1CCn2c3ccccc3c(=O)c3cccc1c32 [Compound 7o, 3-(4-(Trifluoromethyl)benzoyl)-2,3-dihydro-1H,7H-pyrazino[3,2,1-de]acridin-7-one] | 93.92 ± 0.39 | 77.8 ± 0.91 | 69.54 ± 0.24 | 58.23 ± 0.26 | 24.3 ± 0.76 | 94.97 ± 0.73 | 76.63 ± 0.13 | 70 ± 0.93 | 61.26 ± 0.29 | 36.1 ± 0.64 | 95.33 ± 0.63 | 91.17 ± 0.26 | 88.65 ± 0.11 | 80.68 ± 0.76 | 48.2 ± 0.79 | 240 to 242
2 | O=C(c1cccnc1)N1CCn2c3ccccc3c(=O)c3cccc1c32 [Compound 7b, 3-Nicotinoyl-2,3-dihydropyrazino[3,2,1-de]acridin-7(1H)-one] | 89.93 ± 0.66 | 65.63 ± 0.27 | 52.5 ± 0.82 | 38.1 ± 0.42 | 19.4 ± 0.35 | 86.22 ± 0.83 | 56.42 ± 0.47 | 46.91 ± 0.44 | 32.3 ± 0.16 | 19 ± 0.62 | 98.93 ± 0.66 | 97.41 ± 0.57 | 96.44 ± 0.46 | 95.2 ± 0.29 | 55.1 ± 0.88 | 231 to 233
3 | Cc1cccnc1C(=O)N1CCn2c3ccccc3c(=O)c3cccc1c32 [Compound 7g, 3-(3-Methylpicolinoyl)-2,3-dihydropyrazino[3,2,1-de]acridin-7(1H)-one] | 79.09 ± 0.34 | 58.9 ± 0.93 | 45.1 ± 0.54 | 25.5 ± 0.44 | 10 ± 0.91 | 81.56 ± 0.48 | 52.3 ± 0.86 | 41.7 ± 0.74 | 14.6 ± 0.34 | 10.6 ± 0.28 | 95.9 ± 0.54 | 92.62 ± 0.31 | 88.84 ± 0.07 | 81.24 ± 0.32 | 48.2 ± 0.86 | 221 to 223
4 | O=C(c1ccc(F)cc1)N1CCn2c3ccccc3c(=O)c3cccc1c32 [Compound 7r, 3-(4-Fluorobenzoyl)-2,3-dihydro-1H,7H-pyrazino[3,2,1-de]acridin-7-one] | 91.9 ± 0.93 | 75.12 ± 0.73 | 66.15 ± 0.13 | 55.26 ± 0.23 | 21.6 ± 0.24 | 96.33 ± 0.48 | 86.31 ± 0.21 | 78.85 ± 0.32 | 69 ± 0.05 | 40.7 ± 0.86 | 97.98 ± 0.88 | 95.25 ± 0.68 | 92.81 ± 0.21 | 88.11 ± 0.25 | 51.93 ± 0.23 | 236 to 238
5 | Cc1ccc(C(=O)N2CCn3c4ccccc4c(=O)c4cccc2c43)nc1 [Compound 7f, 3-(5-Methylpicolinoyl)-2,3-dihydropyrazino[3,2,1-de]acridin-7(1H)-one] | 86.92 ± 0.24 | 61.4 ± 0.68 | 49.24 ± 0.05 | 29.09 ± 0.18 | 17.1 ± 0.65 | 83.22 ± 0.21 | 54.18 ± 0.35 | 43.7 ± 0.54 | 23.3 ± 0.26 | 13.8 ± 0.73 | 92.96 ± 0.52 | 90.92 ± 0.52 | 88.07 ± 0.68 | 80.53 ± 0.41 | 47.46 ± 0.38 | 252 to 254
6 | O=C(c1ccccc1F)N1CCn2c3ccccc3c(=O)c3cccc1c32 [Compound 7p, 3-(2-Fluorobenzoyl)-2,3-dihydro-1H,7H-pyrazino[3,2,1-de]acridin-7-one] | 90.43 ± 0.77 | 74.71 ± 0.22 | 65.8 ± 0.76 | 54.13 ± 0.37 | 21 ± 0.22 | 89.82 ± 0.36 | 68.3 ± 0.79 | 61.77 ± 0.42 | 51.43 ± 0.36 | 30.3 ± 0.84 | 96.23 ± 0.74 | 93.99 ± 0.91 | 89.17 ± 0.81 | 82.34 ± 0.34 | 48.53 ± 0.12 | 225 to 227
7 | O=C(c1ccccc1)N1CCn2c3ccccc3c(=O)c3cccc1c32 [Compound 7l, 3-Benzoyl-2,3-dihydro-1H,7H-pyrazino[3,2,1-de]acridin-7-one] | 97.17 ± 0.22 | 83.2 ± 0.99 | 76.71 ± 0.06 | 68.88 ± 0.47 | 30.6 ± 0.87 | 95.13 ± 0.85 | 82.38 ± 0.27 | 75.3 ± 0.81 | 65.86 ± 0.47 | 38.8 ± 0.88 | 96.44 ± 0.31 | 94.13 ± 0.23 | 89.65 ± 0.12 | 82.83 ± 0.54 | 48.8 ± 0.67 | 253 to 255
8 | O=c1c2ccccc2n2c3c(cccc13)N(c1nccs1)CC2 [Compound 7j, 3-(Thiazol-2-yl)-2,3-dihydropyrazino[3,2,1-de]acridin-7(1H)-one] | 89.55 ± 0.11 | 64.84 ± 0.45 | 51.5 ± 0.94 | 31.05 ± 0.19 | 17.4 ± 0.87 | 87.9 ± 0.95 | 58.4 ± 0.88 | 48.2 ± 0.88 | 39.53 ± 0.23 | 23.3 ± 0.98 | 96.71 ± 0.63 | 94.47 ± 0.83 | 91.28 ± 0.48 | 84.17 ± 0.37 | 49.6 ± 0.38 | 239 to 241
